Data as given in patent US20070093520A1, “Method of treatment of diarrhea-predominant irritable bowel syndrome in a subject” (priority 2005, published 2007).

Tested on: diarrhea-predominant IBS subjects
Assay: 3007 Study: open-label 52-week safety study, adverse events and withdrawals

Cc1nccn1C[C@H]1CCc2c(c3cccc4c3n2CCC4)C1=O [cilansetron, (R)-(−)-4,5,6,8,9,10-hexahydro-10-[(2-methyl-1H-imidazol-1-yl)methyl]-11H-pyrido-[3,2,1-jk]-carbazol-11-one]
TEAE: Sexual Desire Disorders (P/C group): 1 (<1%) n (%)
TEAE: Sick Sinus Syndrome (P/C group): 1 (<1%) n (%)
TEAE: Sinus Arrhythmia (P/C group): 1 (<1%) n (%)
TEAE: Sinus Congestion (P/C group): 3 (1%) n (%)
TEAE: Skin Disorder NOS (P/C group): 1 (<1%) n (%)
TEAE: Skin Injuries and Mechanical Dermatoses (P/C group): 2 (<1%) n (%)
TEAE: Skin Lesion NOS (P/C group): 2 (<1%) n (%)
TEAE: Skin Neoplasms Benign (P/C group): 1 (<1%) n (%)
TEAE: Skin Neoplasms Malignant and Unspecified (Excl Melanoma) (P/C group): 4 (1%) n (%)
TEAE: Skin Ulcer (P/C group): 1 (<1%) n (%)
TEAE: Skin and Subcutaneous Tissue Disorders (P/C group): 25 (9%) n (%)
TEAE: Skin and Subcutaneous Tissue Ulcerations (P/C group): 1 (<1%) n (%)
TEAE: Social Circumstances (P/C group): 1 (<1%) n (%)
TEAE: Soft Tissue Neoplasms Benign NEC (P/C group): 0 n (%)
TEAE: Strabismus (P/C group): 1 (<1%) n (%)
TEAE: Stress Incontinence (P/C group): 0 n (%)
TEAE: Stress Symptoms (P/C group): 1 (<1%) n (%)
TEAE: Structural and Other Bile Duct Disorders (P/C group): 1 (<1%) n (%)
TEAE: Sugar Intolerance (Excl Glucose Intolerance) (P/C group): 1 (<1%) n (%)
TEAE: Suicidal Ideation (P/C group): 1 (<1%) n (%)
TEAE: Suicidal and Self-Injurious Behaviour (P/C group): 1 (<1%) n (%)
TEAE: Supraventricular Arrhythmias (P/C group): 3 (1%) n (%)
TEAE: Supraventricular Tachycardia (P/C group): 1 (<1%) n (%)
TEAE: Surgical and Medical Procedures (P/C group): 1 (<1%) n (%)
TEAE: Sweating Increased (P/C group): 2 (<1%) n (%)
TEAE: Swelling Face (P/C group): 1 (<1%) n (%)
TEAE: Tachycardia NOS (P/C group): 0 n (%)
TEAE: Tenderness NOS (P/C group): 1 (<1%) n (%)
TEAE: Thrombocytopenia (P/C group): 1 (<1%) n (%)
TEAE: Thrombocytopenias (P/C group): 1 (<1%) n (%)
TEAE: Thrombophlebitis Superficial (P/C group): 1 (<1%) n (%)
TEAE: Thyroid Disorders NEC (P/C group): 0 n (%)
TEAE: Thyroid Hypofunction Disorders (P/C group): 1 (<1%) n (%)
TEAE: Thyroid Neoplasms (P/C group): 1 (<1%) n (%)
TEAE: Thyroid Nodule (P/C group): 1 (<1%) n (%)
TEAE: Tinnitus (P/C group): 0 n (%)
TEAE: Total Fluid Volume Decreased (P/C group): 1 (<1%) n (%)
TEAE: Tympanic Membrane Disorder NOS (P/C group): 1 (<1%) n (%)
TEAE: Tympanic Membrane Disorders (Excl Infections) (P/C group): 1 (<1%) n (%)
TEAE: Upper Respiratory Tract Signs and Symptoms (P/C group): 4 (1%) n (%)
TEAE: Urinary Abnormalities (P/C group): 1 (<1%) n (%)
TEAE: Urinary Frequency (P/C group): 1 (<1%) n (%)
TEAE: Urinary Incontinence (P/C group): 0 n (%)
TEAE: Urinary Retention (P/C group): 0 n (%)
TEAE: Urinary Tract Lithiasis (Excl Renal) (P/C group): 0 n (%)
TEAE: Urinary Tract Signs and Symptoms NEC (P/C group): 1 (<1%) n (%)
TEAE: Urine Abnormal NOS (P/C group): 0 n (%)
TEAE: Urticaria NOS (P/C group): 2 (<1%) n (%)
TEAE: Urticarias (P/C group): 2 (<1%) n (%)
TEAE: Uterine Disorders NEC* (P/C group): 0 n (%)
TEAE: Uterine Fibroids* (P/C group): 0 n (%)
TEAE: Uterine Neoplasms Benign* (P/C group): 0 n (%)
TEAE: Uterine Neoplasms* (P/C group): 0 n (%)
TEAE: Uterine Polyp NOS* (P/C group): 0 n (%)
TEAE: Vaginal Cyst* (P/C group): 0 n (%)
TEAE: Vaginal Lesion* (P/C group): 0 n (%)
TEAE: Varicose Vein Ruptured (P/C group): 0 n (%)
TEAE: Varicose Veins Non-Site Specific (P/C group): 0 n (%)
TEAE: Vascular Disorders (P/C group): 8 (3%) n (%)
TEAE: Vascular Hypertensive Disorders NEC (P/C group): 7 (3%) n (%)
TEAE: Vascular Hypotensive Disorders (P/C group): 1 (<1%) n (%)
TEAE: Ventricular Arrhythmias and Cardiac Arrest (P/C group): 1 (<1%) n (%)
TEAE: Ventricular Extrasystoles (P/C group): 0 n (%)
TEAE: Vertigo (P/C group): 1 (<1%) n (%)
TEAE: Visual Acuity Reduced (P/C group): 1 (<1%) n (%)
TEAE: Vitreous Disorder NOS (P/C group): 1 (<1%) n (%)
TEAE: Vulvovaginal Cysts and Neoplasms* (P/C group): 0 n (%)
TEAE: Vulvovaginal Dryness* (P/C group): 2 (1%) n (%)
TEAE: Vulvovaginal Signs and Symptoms* (P/C group): 2 (1%) n (%)
TEAE: Wheezing (P/C group): 0 n (%)
TEAE: Abdominal Discomfort (Placebo/Cilansetron 2 mg): 0 n (%)
TEAE: Abdominal Distension (Placebo/Cilansetron 2 mg): 6 (2%) n (%)
TEAE: Abdominal Pain Aggravated (Placebo/Cilansetron 2 mg): 0 n (%)
TEAE: Abdominal Pain Lower (Placebo/Cilansetron 2 mg): 6 (2%) n (%)
TEAE: Abdominal Pain NOS (Placebo/Cilansetron 2 mg): 21 (8%) n (%)
TEAE: Abdominal Pain Upper (Placebo/Cilansetron 2 mg): 4 (1%) n (%)
TEAE: Abdominal Rebound Tenderness (Placebo/Cilansetron 2 mg): 0 n (%)
TEAE: Abdominal Tenderness (Placebo/Cilansetron 2 mg): 4 (1%) n (%)
TEAE: Abnormal Reflexes (Placebo/Cilansetron 2 mg): 0 n (%)
TEAE: Alanine Aminotransferase Increased (Placebo/Cilansetron 2 mg): 6 (2%) n (%)
TEAE: Anal and Rectal Disorders NEC (Placebo/Cilansetron 2 mg): 1 (<1%) n (%)
TEAE: Anal and Rectal Pains (Placebo/Cilansetron 2 mg): 4 (1%) n (%)
TEAE: Anal and Rectal Signs and Symptoms (Placebo/Cilansetron 2 mg): 3 (1%) n (%)
TEAE: Animal Bite (Placebo/Cilansetron 2 mg): 1 (<1%) n (%)
TEAE: Appendicitis (Placebo/Cilansetron 2 mg): 0 n (%)
TEAE: Arthralgia (Placebo/Cilansetron 2 mg): 3 (1%) n (%)
TEAE: Arthritis NOS (Placebo/Cilansetron 2 mg): 0 n (%)
TEAE: Arthritis NOS Aggravated (Placebo/Cilansetron 2 mg): 0 n (%)
TEAE: Arthropathies NEC (Placebo/Cilansetron 2 mg): 1 (<1%) n (%)
TEAE: Arthropod Bite (Placebo/Cilansetron 2 mg): 1 (<1%) n (%)
TEAE: Arthropod Sting (Placebo/Cilansetron 2 mg): 1 (<1%) n (%)
TEAE: Aspartate Aminotransferase Increased (Placebo/Cilansetron 2 mg): 3 (1%) n (%)
TEAE: Back Injury NOS (Placebo/Cilansetron 2 mg): 0 n (%)
TEAE: Back Pain (Placebo/Cilansetron 2 mg): 6 (2%) n (%)
TEAE: Back Pain Aggravated (Placebo/Cilansetron 2 mg): 1 (<1%) n (%)
TEAE: Bacteria Identification and Serology (Excl Mycobacteria) (Placebo/Cilansetron 2 mg): 0 n (%)
TEAE: Bilirubin Urine (Placebo/Cilansetron 2 mg): 0 n (%)
TEAE: Bladder Infection NOS (Placebo/Cilansetron 2 mg): 1 (<1%) n (%)
TEAE: Blood Alkaline Phosphatase NOS Increased (Placebo/Cilansetron 2 mg): 1 (<1%) n (%)
TEAE: Blood Bilirubin Increased (Placebo/Cilansetron 2 mg): 2 (<1%) n (%)
TEAE: Blood Cholesterol Increased (Placebo/Cilansetron 2 mg): 8 (3%) n (%)
TEAE: Blood Creatine Phosphokinase Increased (Placebo/Cilansetron 2 mg): 8 (3%) n (%)
TEAE: Blood Creatine Phosphokinase Mb Increased (Placebo/Cilansetron 2 mg): 0 n (%)
TEAE: Blood Creatinine Increased (Placebo/Cilansetron 2 mg): 3 (1%) n (%)
TEAE: Blood Glucose Increased (Placebo/Cilansetron 2 mg): 0 n (%)
TEAE: Blood Potassium Increased (Placebo/Cilansetron 2 mg): 0 n (%)
TEAE: Blood Pressure Increased (Placebo/Cilansetron 2 mg): 2 (<1%) n (%)
TEAE: Blood Sodium Increased (Placebo/Cilansetron 2 mg): 0 n (%)
TEAE: Blood Triglycerides Increased (Placebo/Cilansetron 2 mg): 4 (1%) n (%)
TEAE: Blood Uric Acid Increased (Placebo/Cilansetron 2 mg): 0 n (%)
TEAE: Blood Urine Present (Placebo/Cilansetron 2 mg): 4 (1%) n (%)
TEAE: Blood in Stool (Placebo/Cilansetron 2 mg): 4 (1%) n (%)
TEAE: Bone Density Decreased (Placebo/Cilansetron 2 mg): 1 (<1%) n (%)
TEAE: Bone Disorder NOS (Placebo/Cilansetron 2 mg): 0 n (%)
TEAE: Bone Disorders NEC (Placebo/Cilansetron 2 mg): 2 (<1%) n (%)
TEAE: Bone Injury (Placebo/Cilansetron 2 mg): 0 n (%)
TEAE: Bone Spur (Placebo/Cilansetron 2 mg): 1 (<1%) n (%)
TEAE: Bronchitis Acute NOS (Placebo/Cilansetron 2 mg): 1 (<1%) n (%)
TEAE: Bronchitis NOS (Placebo/Cilansetron 2 mg): 5 (2%) n (%)
TEAE: Bronchopneumonia NOS (Placebo/Cilansetron 2 mg): 1 (<1%) n (%)
TEAE: Bunion (Placebo/Cilansetron 2 mg): 0 n (%)
TEAE: Bursal Disorders (Placebo/Cilansetron 2 mg): 3 (1%) n (%)
TEAE: Bursitis (Placebo/Cilansetron 2 mg): 2 (<1%) n (%)
TEAE: Candida Infections (Placebo/Cilansetron 2 mg): 2 (<1%) n (%)
TEAE: Candidal Infection NOS (Placebo/Cilansetron 2 mg): 1 (<1%) n (%)
TEAE: Carbohydrate Tolerance Analyses (Incl Diabetes) (Placebo/Cilansetron 2 mg): 0 n (%)
TEAE: Cardiac Auscultatory Investigations (Placebo/Cilansetron 2 mg): 0 n (%)
TEAE: Cardiac Murmur NOS (Placebo/Cilansetron 2 mg): 0 n (%)
TEAE: Carotid Bruit (Placebo/Cilansetron 2 mg): 1 (<1%) n (%)
TEAE: Carpal Tunnel Syndrome (Placebo/Cilansetron 2 mg): 1 (<1%) n (%)
TEAE: Cartilage Disorder NOS (Placebo/Cilansetron 2 mg): 0 n (%)
TEAE: Cartilage Disorders (Placebo/Cilansetron 2 mg): 0 n (%)
TEAE: Cellulitis (Placebo/Cilansetron 2 mg): 1 (<1%) n (%)
TEAE: Cervical Spasm (Placebo/Cilansetron 2 mg): 0 n (%)
TEAE: Change in Bowel Habit NOS (Placebo/Cilansetron 2 mg): 1 (<1%) n (%)
TEAE: Chapped Lips (Placebo/Cilansetron 2 mg): 1 (<1%) n (%)
TEAE: Chest Wall Pain (Placebo/Cilansetron 2 mg): 2 (<1%) n (%)
TEAE: Cholesterol Analyses (Placebo/Cilansetron 2 mg): 8 (3%) n (%)
TEAE: Colitis (Excl Infective) (Placebo/Cilansetron 2 mg): 1 (<1%) n (%)
TEAE: Colitis Ischaemic (Placebo/Cilansetron 2 mg): 1 (<1%) n (%)
TEAE: Colonic Polyp (Placebo/Cilansetron 2 mg): 0 n (%)
TEAE: Connective Tissue Disorders (Excl Le) (Placebo/Cilansetron 2 mg): 2 (<1%) n (%)
TEAE: Constipation (Placebo/Cilansetron 2 mg): 62 (22%) n (%)
TEAE: Cystitis NOS (Placebo/Cilansetron 2 mg): 0 n (%)
TEAE: Dental Disorders NEC (Placebo/Cilansetron 2 mg): 0 n (%)
TEAE: Dental Infections - Pathogen Class Unspecified (Placebo/Cilansetron 2 mg): 2 (<1%) n (%)
TEAE: Dental Pain and Sensation Disorders (Placebo/Cilansetron 2 mg): 1 (<1%) n (%)
TEAE: Diaphragmatic Hernias (Placebo/Cilansetron 2 mg): 0 n (%)
TEAE: Diarrhoea (Excl Infective) (Placebo/Cilansetron 2 mg): 15 (5%) n (%)
TEAE: Diarrhoea Aggravated (Placebo/Cilansetron 2 mg): 2 (<1%) n (%)
TEAE: Diarrhoea Haemorrhagic (Placebo/Cilansetron 2 mg): 2 (<1%) n (%)
TEAE: Diarrhoea NOS (Placebo/Cilansetron 2 mg): 9 (3%) n (%)
TEAE: Disturbances in Consciousness NEC (Placebo/Cilansetron 2 mg): 1 (<1%) n (%)
TEAE: Diverticulitis NOS (Placebo/Cilansetron 2 mg): 1 (<1%) n (%)
TEAE: Diverticulum Inflammations (Placebo/Cilansetron 2 mg): 1 (<1%) n (%)
TEAE: Dizziness (Placebo/Cilansetron 2 mg): 2 (<1%) n (%)
TEAE: Dry Mouth (Placebo/Cilansetron 2 mg): 1 (<1%) n (%)
TEAE: Dysarthria (Placebo/Cilansetron 2 mg): 1 (<1%) n (%)
TEAE: Dyskinesias and Movement Disorders NEC (Placebo/Cilansetron 2 mg): 1 (<1%) n (%)
TEAE: Dyspepsia (Placebo/Cilansetron 2 mg): 7 (3%) n (%)
TEAE: Dyspepsia Aggravated (Placebo/Cilansetron 2 mg): 0 n (%)
TEAE: Dyspeptic Signs and Symptoms (Placebo/Cilansetron 2 mg): 7 (3%) n (%)
TEAE: ECG Investigations (Placebo/Cilansetron 2 mg): 1 (<1%) n (%)
TEAE: Ear Infection NOS (Placebo/Cilansetron 2 mg): 2 (<1%) n (%)
TEAE: Ear Infections (Placebo/Cilansetron 2 mg): 3 (1%) n (%)
TEAE: Electrocardiogram Qrs Complex Abnormal (Placebo/Cilansetron 2 mg): 0 n (%)
TEAE: Electrocardiogram T Wave Inversion (Placebo/Cilansetron 2 mg): 1 (<1%) n (%)
TEAE: Enteritis (Placebo/Cilansetron 2 mg): 1 (<1%) n (%)
TEAE: Epigastric Discomfort (Placebo/Cilansetron 2 mg): 1 (<1%) n (%)
